In paper PMC11984407, “A natural small molecule isoginkgetin alleviates hypercholesterolemia and atherosclerosis by targeting ACLY” (Theranostics, 2025):

Key:
[1] = target: T1, recombinant ACLY protein (Homo sapiens, UniProt P53396); assay: ACLY activity assay in vitro (cell-free ADP-Glo assay); format: biochemical; conditions: read-out: ACLY enzyme activity IC50
T1 sequence (P53396 1-1101): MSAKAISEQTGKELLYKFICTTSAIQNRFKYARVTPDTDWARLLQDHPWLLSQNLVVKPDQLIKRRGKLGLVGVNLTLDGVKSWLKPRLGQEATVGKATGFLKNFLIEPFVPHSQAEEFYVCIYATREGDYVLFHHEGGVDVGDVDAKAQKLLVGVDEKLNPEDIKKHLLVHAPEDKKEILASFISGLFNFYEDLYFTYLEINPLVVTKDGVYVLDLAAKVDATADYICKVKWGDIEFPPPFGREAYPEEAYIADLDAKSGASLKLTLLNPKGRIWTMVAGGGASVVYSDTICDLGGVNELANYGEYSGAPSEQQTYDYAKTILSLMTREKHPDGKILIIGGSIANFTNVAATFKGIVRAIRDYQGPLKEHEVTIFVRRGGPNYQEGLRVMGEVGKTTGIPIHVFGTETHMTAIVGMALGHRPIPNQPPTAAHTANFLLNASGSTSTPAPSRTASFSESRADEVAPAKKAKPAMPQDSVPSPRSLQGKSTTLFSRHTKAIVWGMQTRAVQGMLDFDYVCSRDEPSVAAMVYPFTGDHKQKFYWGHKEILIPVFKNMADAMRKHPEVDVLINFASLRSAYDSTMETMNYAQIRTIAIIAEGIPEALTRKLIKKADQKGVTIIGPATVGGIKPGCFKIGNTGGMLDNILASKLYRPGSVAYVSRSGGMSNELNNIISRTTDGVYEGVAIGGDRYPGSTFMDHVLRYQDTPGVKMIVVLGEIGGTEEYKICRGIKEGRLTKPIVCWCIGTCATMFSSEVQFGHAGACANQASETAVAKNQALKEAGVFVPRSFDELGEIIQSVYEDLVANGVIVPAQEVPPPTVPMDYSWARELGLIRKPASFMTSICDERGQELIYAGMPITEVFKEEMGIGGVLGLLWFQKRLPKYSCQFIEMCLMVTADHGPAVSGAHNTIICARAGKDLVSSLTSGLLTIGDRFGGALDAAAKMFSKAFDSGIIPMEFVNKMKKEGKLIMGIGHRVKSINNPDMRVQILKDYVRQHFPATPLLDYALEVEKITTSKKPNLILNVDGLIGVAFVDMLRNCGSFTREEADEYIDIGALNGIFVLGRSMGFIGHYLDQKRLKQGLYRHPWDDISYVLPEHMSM
Protocol: ACLY activity was assessed in a cell-free system using an ADP-Glo dependent assay, as previously described. Briefly, the reaction was conducted in a 384-well plate containing 2 µL of substrate (5 mmol/L ATP, 30 mmol/L citrate, 15 mmol/L CoA) in kinase buffer (40 mmol/L Tris base, 10 mmol/L MgCl2, 5 mmol/L DTT). The reaction was initiated by adding 20 nmol/L recombinant human ACLY protein and various concentrations of the compounds, followed by incubation for 30 min at 37 °C. During the reaction, ACLY converted ATP to ADP. ADP levels, which reflect ACLY activity, were quantified using the ADP-Glo assay kit (V9102, Promega, Madison, USA) in accordance with the manufacturer's instructions. The enzymatic activity curve was analyzed using the log (inhibitor) versus normalized response-variable slope function in GraphPad Prism.

[2] = tested on: Apoe-/- mice; assay: Liver Acly knockdown by GalNAc-siAcly in Apoe-/- mice; format: in vivo, mouse
Protocol: Conjugating siRNA with N-acetylgalactosamine (GalNAc) is a promising strategy for depleting target gene expression specifically in the liver. […] In this study, we employed GalNAc-siAcly to knock down Acly in the liver of Apoe^-/- mice that were fed high cholesterol diet for 15 weeks. ISOGK was administered starting from the 7th week for 8 additional weeks (Figure 7A). […] The qRT-PCR results also supported the same conclusion (Figure S7A).
Figure 7 The anti-atherosclerotic and lipid-lowering effects of isoginkgetin in Apoe^-/- mice were ACLY-dependent. (A) Scheme of study design. Briefly, male Apoe^-/- mice were induced by high cholesterol diet for 7 weeks and administrated GalNAc-siAcly (3 mg/kg/month). Animals then received ISOGK (20 mg/kg/day) treatment for another 8 weeks. (B) Immunoblotting analysis and quantification of ACLY protein in liver and kidney tissues from indicated groups (n = 3). One-way ANOVA followed by Bonferroni's post hoc test. (C) Representative images of Oil Red O staining of en face aortas from male Apoe^-/- mice fed high cholesterol diet. (D) Representative images of ORO staining of the aortic sinus from male Apoe^-/- mice fed high cholesterol diet. (E) Representative images of H&E staining of the aortic sinus from male Apoe^-/- mice fed High cholesterol diet. (F) Quantitative analysis of C-E (n = 6 - 8). One-way ANOVA followed by Bonferroni's post hoc test. (G) Plasma levels of TC, TG, LDL-C and HDL-C in the indicated groups (n = 6 - 8). One-way ANOVA followed by Bonferroni's post hoc test. The data are means ± SEM, n.s., not significant, *P < 0.05, **P < 0.01, ***P < 0.001, ****P < 0.0001.

**Q.** What does the source list for `COc1ccc(-c2cc(=O)c3c(O)cc(O)c(-c4cc(-c5cc(=O)c6c(O)cc(O)cc6o5)ccc4OC)c3o2)cc1` [ISOGK, Isoginkgetin]?
**A.** IC50 [1]: 5.46 ± 1.11 µM; effect on atherosclerosis in aortic sinus ([2]; Acly knockdown Apoe-/- mice): not observed; lipid-lowering effect (plasma TC, TG, LDL-C, HDL-C) ([2]; Acly knockdown Apoe-/- mice): not further observed; aortic plaque area ([2]; Acly knockdown group (GalNAc-siAcly), 20 mg/kg/day): not decreased further; aortic sinus lesion areas and necrotic core area ([2]; control Apoe-/- mice, 20 mg/kg/day): significantly reduced; size of aortic plaques vs vehicle ([2]; control Apoe-/- mice, 20 mg/kg/day, 8 weeks): significantly lower
